# Measurements reported in US20120040977A1, “INHIBITORS OF HCV NS5A” (PRESIDIO PHARMACEUTICALS, INC., priority 2009, published 2012).
# System: HCV genotype 1b replicon
# Experiment: HCV replicon assay (HCV 1b_Huh-Luc/Neo-ET cell line, luciferase readout)
# Assay type: cell-based
# Details: Hepatitis C virus; bicistronic genotype 1b replicon in Huh 7 cells, 72 h incubation, luciferase enzyme activity; read-out: Inhibition of HCV genotype 1b
# Procedure: Biological activity of the compounds of the invention was determined using an HCV replicon assay. The HCV 1b_Huh-Luc/Neo-ET cell line persistently expressing a bicistronic genotype 1b replicon in Huh 7 cells was obtained from ReBLikon GMBH. This cell line was used to test compound inhibition using luciferase enzyme activity readout as a measurement of compound inhibition of replicon levels.
# On Day 1 (the day after plating cells), each compound is added in triplicate to the cells. Plates are incubated for 72 h prior to determining luciferase levels. Enzyme activity was measured using a Bright-Glo Kit (cat. number E2620) manufactured by Promega Corporation. The following equation was used to generate a percent control value for each compound.
# % Control=(Average Compound Value/Average Control)*100
# The EC50 value was determined using GraphPad Prism and the following equation:
# Y=Bottom+(Top−Bottom)/(1+10̂((LogIC50−X)*HillSlope))
# EC50 values of compounds are determined several times in the replicon assay. […]
row,Structure (SMILES),EC50 [nM]
1,COC(=O)N[C@H](C(=O)N1CCC[C@H]1C(=O)Nc1ccc(-c2ccc(-c3cnc([C@@H]4CCCN4C(=O)[C@@H](NC(=O)OC)C(C)C)[nH]3)cn2)cc1)C(C)C [Compound 71],1 to 9.9
2,COC(=O)N[C@H](C(=O)N1CCC[C@H]1c1ncc(-c2ccc(Sc3cccc(-c4cnc([C@@H]5CCCN5C(=O)[C@@H](NC(=O)OC)C(C)C)[nH]4)c3)cc2)[nH]1)C(C)C [Compound 69],< 1
3,CC(C)[C@@H](NC(=O)OC(C)(C)C)C(=O)N1CCC[C@H]1C(=O)Nc1ccc(-c2ccc(-c3cnc([C@@H]4CCCN4C(=O)[C@H](NC(=O)OC(C)(C)C)C(C)C)[nH]3)cc2)cc1 [Compound 15],1 to 9.9
4,C[C@@H](NC(=O)C1CC1)C(=O)N1CCC[C@H]1C(=O)Nc1ccc(-c2ccc(-c3cnc([C@@H]4COCCN4C(=O)[C@@H](C)NC(=O)C4CC4)[nH]3)cc2)cc1 [Compound 19],1 to 9.9
5,COC(=O)N[C@@H](C(=O)N1CCC[C@H]1C(=O)Nc1ccc(-c2ccc(-c3cnc([C@@H]4CCCN4C(=O)[C@@H](c4ccccc4)N(C)C)[nH]3)cc2)cc1)c1ccccc1 [Compound 59],< 1
6,CC(C)(C)OC(=O)N[C@@H](C(=O)N1CCC[C@H]1c1ncc(-c2ccc(Oc3ccc(-c4cnc([C@@H]5CCCN5C(=O)[C@H](NC(=O)OC(C)(C)C)c5ccccc5)[nH]4)cc3)cc2)[nH]1)c1ccccc1 [Compound 52],< 1
7,COC(=O)N[C@@H](C(=O)N1CCC[C@H]1C(=O)Nc1ccc(-c2ccc(-c3cnc([C@@H]4CCCN4C(=O)[C@H](NC(=O)OC)c4ccccc4)[nH]3)cn2)cc1)c1ccccc1 [Compound 72],< 1
8,COC(=O)N[C@H](C(=O)N1CCC[C@H]1C(=O)Nc1ccc(-c2ccc(-c3cnc([C@@H]4CCCN4C(=O)[C@@H](NC(=O)OC)C(C)C)[nH]3)cc2)cc1)C(C)C [Compound 109],10 to 999
9,COC(=O)N[C@@H](C(=O)N1CCC[C@H]1c1ncc(-c2ccc(-c3ccc(C(=O)NC[C@@H]4CCCN4C(=O)[C@@H](c4ccccc4)N4CCOCC4)cc3)cc2)[nH]1)c1ccccc1 [Compound 63],< 1
10,COC(=O)N[C@@H](C(=O)N1CCC[C@H]1C(=O)NCc1ccc(-c2ccc3nc([C@@H]4CCCN4C(=O)[C@H](NC(=O)OC)c4ccccc4)[nH]c3c2)cc1)c1ccccc1 [Compound 111],< 1
11,COC(=O)N[C@@H](C(=O)N1CCC[C@H]1CNC(=O)c1ccc(-c2ccc(-c3cnc([C@@H]4CCCN4C(=O)[C@@H](c4ccccc4)N4CCCCC4)[nH]3)cc2)cc1)c1ccccc1 [Compound 61],< 1
12,COC(=O)N[C@H](C(=O)N1CCC[C@H]1C(=O)Nc1ccc(-c2ccc3nc([C@@H]4CCCN4C(=O)[C@@H](NC(=O)OC)C(C)C)[nH]c3c2)cc1)C(C)C [Compound 73],1 to 9.9
13,CN1CCN(C(=O)N[C@@H](C(=O)N2CCC[C@H]2CNC(=O)c2ccc(-c3ccc(-c4cnc([C@@H]5CCCN5C(=O)[C@H](NC(=O)N5CCN(C)CC5)c5ccccc5)[nH]4)cc3)cc2)c2ccccc2)CC1 [Compound 57],1 to 9.9
14,COC(=O)N[C@H](C(=O)N1CCC[C@H]1CNC(=O)c1ccc(-c2ccc(-c3cnc([C@@H]4CCCN4C(=O)[C@@H](NC(=O)OC)[C@@H](C)OC)[nH]3)cc2)cc1)[C@@H](C)OC [Compound 122],< 1
15,CN1CCN(C(=O)N[C@@H](C(=O)N2CCC[C@H]2C(=O)NCc2ccc(-c3ccc(-c4cnc([C@@H]5CCCN5C(=O)[C@H](NC(=O)N5CCN(C)CC5)c5ccccc5)[nH]4)cc3)cc2)c2ccccc2)CC1 [Compound 45],1 to 9.9
16,CC(C)(C)OC(=O)N[C@@H](C(=O)N1CCC[C@H]1COc1ccc(-c2ccc(-c3cnc([C@@H]4CCCN4C(=O)[C@H](NC(=O)OC(C)(C)C)c4ccccc4)[nH]3)cc2)cc1)c1ccccc1 [Compound 30],< 1
17,C[C@@H](NC(=O)OC(C)(C)C)C(=O)N1CCC[C@H]1C(=O)Nc1ccc(-c2ccc(-c3cnc([C@@H]4CCCN4C(=O)[C@@H](C)NC(=O)OC(C)(C)C)[nH]3)cc2)cc1 [Compound 14],1 to 9.9
18,COC(=O)N[C@H](C(=O)N1CCC[C@H]1C(=O)NCc1ccc(-c2ccc(-c3cnc([C@@H]4CCCN4C(=O)[C@@H](NC(=O)OC)C4CCOCC4)[nH]3)cc2)cc1)C1CCOCC1 [Compound 107],10 to 999
19,CC(C)[C@@H](NC(=O)OC(C)(C)C)C(=O)N1CCOC[C@H]1C(=O)Nc1ccc(-c2ccc(-c3cnc([C@@H]4CCCN4C(=O)[C@H](NC(=O)OC(C)(C)C)C(C)C)[nH]3)cc2)cc1 [Compound 13],10 to 999
20,COC(=O)N[C@H](C(=O)N1CCC[C@H]1C(=O)N[C@H](C)c1ccc(-c2ccc(-c3cnc([C@@H]4CCCN4C(=O)[C@@H](NC(=O)OC)C4CCOCC4)[nH]3)cc2)cc1)C1CCOCC1 [Compound 103],10 to 999

row,Structure (SMILES),EC50 [nM]
1,COC(=O)N[C@@H](C(=O)N1CCC[C@H]1CNC(=O)c1ccc(-c2ccc(-c3cnc([C@@H]4CCCN4C(=O)[C@@H](c4ccccc4)N4CCOCC4)[nH]3)cc2)cc1)c1ccccc1 [Compound 62],< 1
2,CC(C)[C@@H](NC(=O)C1CC1)C(=O)N1CCC[C@H]1c1ncc(-c2ccc(Oc3ccc(-c4cnc([C@@H]5CCCN5C(=O)[C@H](NC(=O)C5CC5)C(C)C)[nH]4)cc3)cc2)[nH]1 [Compound 53],1 to 9.9
3,O=C(Nc1ccc(-c2ccc(-c3cnc([C@@H]4COCCN4C(=O)[C@H](NC(=O)N4CCOCC4)c4ccccc4)[nH]3)cc2)cc1)[C@@H]1COCCN1C(=O)[C@H](NC(=O)N1CCOCC1)c1ccccc1 [Compound 2],1 to 9.9
4,CC(C)[C@@H](NC(=O)C1CC1)C(=O)N1CCC[C@H]1C(=O)Nc1ccc(-c2ccc(-c3cnc([C@@H]4COCCN4C(=O)[C@H](NC(=O)C4CC4)C(C)C)[nH]3)cc2)cc1 [Compound 20],1 to 9.9
5,C[C@@H](NC(=O)C1CC1)C(=O)N1CCOC[C@H]1C(=O)Nc1ccc(-c2ccc(-c3cnc([C@@H]4CCCN4C(=O)[C@@H](C)NC(=O)C4CC4)[nH]3)cc2)cc1 [Compound 22],1 to 9.9
6,COC(=O)N[C@H](C(=O)N1CCC[C@H]1C(=O)N[C@@H](C)c1ccc(-c2ccc(-c3cnc([C@@H]4CCCN4C(=O)[C@@H](NC(=O)OC)C(C)C)[nH]3)cc2)cc1)C(C)C [Compound 95],< 1
7,C[C@@H](NC(=O)[C@@H]1CCCN1C(=O)[C@H](NC(=O)N1CCOCC1)c1ccccc1)c1ccc(-c2ccc(-c3cnc([C@@H]4CCCN4C(=O)[C@H](NC(=O)N4CCOCC4)c4ccccc4)[nH]3)cc2)cc1 [Compound 41],1 to 9.9
8,CC(C)(C)OC(=O)N[C@@H](C(=O)N1CCC[C@H]1C(=O)NCc1ccc(-c2ccc(-c3cnc([C@@H]4CCCN4C(=O)[C@H](NC(=O)OC(C)(C)C)c4ccccc4)[nH]3)cc2)cc1)c1ccccc1 [Compound 33],< 1
9,COC(=O)N[C@H](C(=O)N[C@@H](C)c1ncc(-c2ccc(-c3ccc(C(=O)NC[C@@H]4CCCN4C(=O)[C@@H](NC(=O)OC)C(C)C)nc3)cc2)[nH]1)C(C)C [Compound 92],1 to 9.9
10,CC(C)(C)OC(=O)N[C@@H](C(=O)N1CCC[C@H]1C(=O)Nc1ccc(-c2ccc(-c3cnc([C@@H]4CCCN4C(=O)[C@H](NC(=O)OC(C)(C)C)c4ccccc4)[nH]3)cc2)cc1)c1ccccc1 [Compound 26],< 1
11,C[C@@H](NC(=O)OC(C)(C)C)C(=O)N1CCC[C@H]1C(=O)Nc1ccc(-c2ccc(-c3cnc([C@@H]4COCCN4C(=O)[C@@H](C)NC(=O)OC(C)(C)C)[nH]3)cc2)cc1 [Compound 9],10 to 999
12,C[C@@H](NC(=O)[C@@H]1CCCN1C(=O)[C@H](NC(=O)N1CCN(C)CC1)c1ccccc1)c1ccc(-c2ccc(-c3cnc([C@@H]4CCCN4C(=O)[C@H](NC(=O)N4CCN(C)CC4)c4ccccc4)[nH]3)cc2)cc1 [Compound 42],1 to 9.9
13,O=C(NCc1ccc(-c2ccc(-c3cnc([C@@H]4CCCN4C(=O)[C@H](NC(=O)N4CCOCC4)c4ccccc4)[nH]3)cc2)cc1)[C@@H]1CCCN1C(=O)[C@H](NC(=O)N1CCOCC1)c1ccccc1 [Compound 44],1 to 9.9
14,C[C@@H](NC(=O)OC(C)(C)C)C(=O)N1CCOC[C@H]1C(=O)Nc1ccc(-c2ccc(-c3cnc([C@@H]4COCCN4C(=O)[C@@H](C)NC(=O)OC(C)(C)C)[nH]3)cc2)cc1 [Compound 17],10 to 999
15,CC(C)[C@@H](NC(=O)C1CC1)C(=O)N1CCOC[C@H]1C(=O)Nc1ccc(-c2ccc(-c3cnc([C@@H]4COCCN4C(=O)[C@H](NC(=O)C4CC4)C(C)C)[nH]3)cc2)cc1 [Compound 25],1 to 9.9
16,COC(=O)N[C@@H](C(=O)N[C@@H](C)c1ncc(-c2ccc(-c3ccc(C(=O)NC[C@@H]4CCCN4C(=O)[C@H](NC(=O)OC)c4ccccc4)cc3)cc2)[nH]1)c1ccccc1 [Compound 89],< 1
17,COC(=O)N[C@@H](C(=O)N1CCC[C@H]1c1ncc(-c2ccc(-c3ccc(C(=O)NC[C@@H]4CCCN4C(=O)[C@H](NC(=O)N4CCN(C)CC4)c4ccccc4)cc3)cc2)[nH]1)c1ccccc1 [Compound 66],< 1
18,C[C@H](NC(=O)[C@@H]1CCCN1C(=O)[C@H](NC(=O)N1CCOCC1)c1ccccc1)c1ccc(-c2ccc(-c3cnc([C@@H]4CCCN4C(=O)[C@H](NC(=O)N4CCOCC4)c4ccccc4)[nH]3)cc2)cc1 [Compound 38],1 to 9.9
19,C[C@H](NC(=O)[C@@H]1CCCN1C(=O)[C@H](NC(=O)N1CCN(C)CC1)c1ccccc1)c1ccc(-c2ccc(-c3cnc([C@@H]4CCCN4C(=O)[C@H](NC(=O)N4CCN(C)CC4)c4ccccc4)[nH]3)cc2)cc1 [Compound 36],1 to 9.9
20,COC(=O)N[C@H](C(=O)N1CCC[C@H]1CNC(=O)c1ccc(-c2ccc(-c3cnc([C@@H]4CCCN4C(=O)[C@@H](NC(=O)OC)C(C)C)[nH]3)cc2)cn1)C(C)C [Compound 83],1 to 9.9
